Results from patent EP4793641A1, “NOVEL METHOD FOR ANALYZING BIOMOLECULAR INTERACTIONS” (Kyoto University, priority 2023, dated 2025).
Non-standard residues stand in square brackets, D forms with d. Residues, ends and D or L forms follow the SMILES beside them. pT = C[C@@H](OP(=O)(O)O)[C@H](N)C(=O)O; pS = N[C@@H](COP(=O)(O)O)C(=O)O

Target: T1, interactions between Talin 1 (TLN1) and integrin subunit beta (ITGB) (Homo sapiens, UniProt Q9Y490)
T1 construct: LgBit or SmBit (N-terminal of the HaloTag); made in house
Assay: Flip-flop detection mechanism on DNA origami (LgBit/SmBit luminescence), inhibitor screening
Assay type: biochemical
Conditions: inhibition of binding between TLN1 and ITBG
Text: Two types of systems, i.e., flip-flop detection mechanism and switch detection mechanism, were constructed by using HaloTag, LgBit, SmBit, TLN1, and ITGB. Each of TLN1 (Uniprot ID: Q9Y490) and ITGB1 (Uniprot ID: P05556) was cloned from the registered genetic information. HaloTAg has three chemically modifiable locations at a ligand recognition site, C-terminus, and N-terminus. In this Example, a single-stranded DNA for attaching to DNA origami was connected to a ligand recognition site of HaloTag, a subunit of an interaction complex was connected to the C-terminus, and LgBit or SmBit was connected to the N-terminus.
The outline of the system is disclosed in Figure 23. When TLN1 and ITBG are in a bound state in this system, LgBit and SmBit are at spatially separated positions from each other, with a HaloTag interposed therebetween. In this regard, if an inhibitor is added, complex formation of TLN1 and ITBG is inhibited. As a result, a LgBit-SmBit complex can be formed, and a luminescence reaction progresses.
As a candidate drug for inhibiting the binding between TLN1 and ITBG, peptide inhibitors consisting of 13 amino acids prepared by modifying amino acids in an intracellular region of ITGB3 have been designed (Shen B. et al., A directional switch of integrin signaling and a new antithrombotic strategy. Nature 503, 131-135 (2013)). IC50 values for the peptides shown in the following table were calculated by using the flip-flop detection mechanism described in Example 11 for optimizing the sequence. In this manner, the effect of a large number of compounds on the interaction with a target protein can be readily analyzed in the system of the present disclosed.

Structure (SMILES) | Inhibitory activity
CSCC[C@H](NC(=O)[C@H](CCCCN)NC(=O)[C@H](CCC(=O)O)NC(=O)[C@H](CCCCN)NC(=O)[C@H](CCC(=O)O)NC(=O)[C@H](C)NC(=O)[C@@H](N)CCCCN)C(=O)N[C@@H](CC(N)=O)C(=O)N[C@@H](C)C(=O)N[C@@H](CCCCN)C(=O)N[C@@H](C)C(=O)N[C@@H](CC(=O)O)C(=O)N[C@H](C(=O)O)[C@@H](C)O [FIYM2] (H-KAEKEKMNAKADT-OH) | no inhibition
CSCC[C@H](NC(=O)[C@H](CC(N)=O)NC(=O)[C@@H](N)CCC(=O)O)C(=O)N[C@@H](CCCCN)C(=O)N[C@@H](CCC(=O)O)C(=O)N[C@@H](CCCCN)C(=O)N[C@@H](CCCCN)C(=O)N[C@@H](CC(=O)O)C(=O)N[C@@H](Cc1c[nH]c2ccccc12)C(=O)N[C@@H](C)C(=O)N[C@@H](CCCCN)C(=O)N[C@@H](Cc1ccccc1)C(=O)N[C@H](C(=O)O)[C@@H](C)O [FIYM3] (H-ENMKEKKDWAKFT-OH) | no inhibition
CC[C@H](C)[C@H](NC(=O)[C@@H]1CCCN1C(=O)[C@H](CC(N)=O)NC(=O)[C@H](CCC(=O)O)NC(=O)CNC(=O)[C@@H](NC(=O)[C@H](CC(=O)O)NC(=O)[C@H](Cc1c[nH]c2ccccc12)NC(=O)[C@@H](N)CCCCN)[C@@H](C)O)C(=O)N[C@@H](Cc1ccc(O)cc1)C(=O)N[C@@H](CCCCN)C(=O)O [FIYM4] (H-KWDTGENPIYK-OH) | no inhibition
CSCC[C@H](NC(=O)[C@H](CCCCN)NC(=O)[C@H](CCC(=O)O)NC(=O)[C@H](CCCCN)NC(=O)[C@H](CCC(=O)O)NC(=O)[C@H](Cc1ccccc1)NC(=O)[C@H](CCCCN)NC(=O)[C@H](C)NC(=O)[C@H](Cc1ccccc1)NC(=O)[C@@H](N)CCC(=O)O)C(=O)N[C@@H](CC(N)=O)C(=O)N[C@@H](C)C(=O)N[C@@H](CCCCN)C(=O)N[C@@H](Cc1c[nH]c2ccccc12)C(=O)N[C@@H](CC(=O)O)C(=O)N[C@H](C(=O)O)[C@@H](C)O [FIYM5] (H-EFAKFEKEKMNAKWDT-OH) | no inhibition
CC[C@H](C)[C@H](NC(=O)[C@@H]1CCCN1C(=O)[C@H](CC(N)=O)NC(=O)[C@H](CCC(=O)O)NC(=O)CNC(=O)[C@@H](NC(=O)[C@H](CC(=O)O)NC(=O)[C@H](Cc1c[nH]c2ccccc12)NC(=O)[C@H](CCCCN)NC(=O)[C@H](C)NC(=O)[C@H](CC(N)=O)NC(=O)[C@H](CCSC)NC(=O)[C@H](CCCCN)NC(=O)[C@H](CCC(=O)O)NC(=O)[C@H](CCCCN)NC(=O)[C@H](CCC(=O)O)NC(=O)[C@H](Cc1ccccc1)NC(=O)[C@@H](N)CCCCN)[C@@H](C)O)C(=O)N[C@@H](Cc1ccc(O)cc1)C(=O)N[C@@H](CCCCN)C(=O)O [FIYM6] (H-KFEKEKMNAKWDTGENPIYK-OH) | no inhibition
CC[C@H](C)[C@H](NC(=O)[C@@H]1CCCN1C(=O)[C@H](CC(N)=O)NC(=O)[C@H](CCC(=O)O)NC(=O)CNC(=O)[C@@H](NC(=O)[C@H](CC(=O)O)NC(=O)[C@H](Cc1c[nH]c2ccccc12)NC(=O)[C@H](CCCCN)NC(=O)[C@H](C)NC(=O)[C@H](CC(N)=O)NC(=O)[C@H](CCSC)NC(=O)[C@H](CCCCN)NC(=O)[C@H](CCC(=O)O)NC(=O)[C@H](CCCCN)NC(=O)[C@H](CCC(=O)O)NC(=O)[C@H](Cc1ccccc1)NC(=O)[C@H](CCCCN)NC(=O)[C@H](C)NC(=O)[C@H](Cc1ccccc1)NC(=O)[C@@H](N)CCC(=O)O)[C@@H](C)O)C(=O)N[C@@H](Cc1ccc(O)cc1)C(=O)N[C@@H](CCCCN)C(=O)O [FIYM7] (H-EFAKFEKEKMNAKWDTGENPIYK-OH) | no inhibition
CSCC[C@H](NC(=O)[C@H](CCCCN)NC(=O)[C@H](CCC(=O)O)NC(=O)[C@H](CCCCN)NC(=O)[C@H](CCC(=O)O)NC(=O)[C@H](Cc1ccccc1)NC(=O)[C@@H](N)CCCCN)C(=O)N[C@@H](CC(N)=O)C(=O)N[C@@H](CS)C(=O)N[C@@H](CCCCN)C(=O)N[C@@H](Cc1c[nH]c2ccccc12)C(=O)N[C@@H](CC(=O)O)C(=O)N[C@H](C(=O)O)[C@@H](C)O [FIYM8] (H-KFEKEKMNCKWDT-OH) | no inhibition
CSCC[C@H](NC(=O)[C@H](CCCCN)NC(=O)[C@H](CCC(=O)O)NC(=O)[C@H](CCCCN)NC(=O)[C@H](CCC(=O)O)NC(=O)[C@H](Cc1ccccc1)NC(=O)[C@@H](N)CCCCN)C(=O)N[C@@H](CC(N)=O)C(=O)N[C@@H](C)C(=O)N[C@@H](CCCCN)C(=O)N[C@@H](Cc1c[nH]c2ccccc12)C(=O)N[C@@H](CCSC)C(=O)N[C@H](C(=O)O)[C@@H](C)O [FIYM9] (H-KFEKEKMNAKWMT-OH) | no inhibition
CSCC[C@H](NC(=O)[C@H](Cc1c[nH]c2ccccc12)NC(=O)[C@H](CCCCN)NC(=O)[C@H](CS)NC(=O)[C@H](CC(N)=O)NC(=O)[C@H](CCSC)NC(=O)[C@H](CCCCN)NC(=O)[C@H](CCC(=O)O)NC(=O)[C@H](CCCCN)NC(=O)[C@H](CCC(=O)O)NC(=O)[C@H](Cc1ccccc1)NC(=O)[C@@H](N)CCCCN)C(=O)N[C@@H](CCCCN)C(=O)O [FIYM11] (H-KFEKEKMNCKWMK-OH) | no inhibition
CSCC[C@H](NC(=O)[C@H](Cc1c[nH]c2ccccc12)NC(=O)[C@H](CCCCN)NC(=O)[C@H](CS)NC(=O)[C@H](CC(N)=O)NC(=O)[C@H](CCSC)NC(=O)[C@H](CCCCN)NC(=O)[C@H](CCC(=O)O)NC(=O)[C@H](CCCCN)NC(=O)[C@H](CCC(=O)O)NC(=O)[C@H](Cc1ccccc1)NC(=O)[C@@H](N)CCCCN)C(=O)N[C@@H](CCCNC(=N)N)C(=O)O [FIYM12] (H-KFEKEKMNCKWMR-OH) | no inhibition
CSCC[C@H](NC(=O)[C@H](CCCCN)NC(=O)[C@H](CCC(=O)O)NC(=O)[C@H](CCCCN)NC(=O)[C@H](CCC(=O)O)NC(=O)[C@H](Cc1ccccc1)NC(=O)[C@@H](N)CCCCN)C(=O)N[C@@H](CC(N)=O)C(=O)N[C@@H](CS)C(=O)N[C@@H](CCCCN)C(=O)N[C@@H](Cc1c[nH]c2ccccc12)C(=O)N[C@@H](CCSC)C(=O)N[C@H](C(=O)O)[C@@H](C)OP(=O)(O)O [FIYM13] (H-KFEKEKMNCKWM[pT]-OH) | no inhibition
CSCC[C@H](NC(=O)[C@H](Cc1c[nH]c2ccccc12)NC(=O)[C@H](CCCCN)NC(=O)[C@H](CS)NC(=O)[C@H](CC(N)=O)NC(=O)[C@H](CCSC)NC(=O)[C@H](CCCCN)NC(=O)[C@H](CCC(=O)O)NC(=O)[C@H](CCCCN)NC(=O)[C@H](CCC(=O)O)NC(=O)[C@H](Cc1ccccc1)NC(=O)[C@@H](N)CCCCN)C(=O)N[C@@H](COP(=O)(O)O)C(=O)O [FIYM14] (H-KFEKEKMNCKWM[pS]-OH) | no inhibition
CSCC[C@H](NC(=O)[C@H](CCCCN)NC(=O)[C@H](CCC(=O)O)NC(=O)[C@H](CCCNC(=N)N)NC(=O)[C@H](CCC(=O)O)NC(=O)[C@H](Cc1ccccc1)NC(=O)[C@@H](N)CCCNC(=N)N)C(=O)N[C@@H](CC(N)=O)C(=O)N[C@@H](CS)C(=O)N[C@@H](CCCNC(=N)N)C(=O)N[C@@H](Cc1c[nH]c2ccccc12)C(=O)N[C@@H](CCSC)C(=O)N[C@H](C(=O)O)[C@@H](C)O [FIYM16] (H-RFEREKMNCRWMT-OH) | no inhibition
CSCC[C@H](NC(=O)[C@H](CCCNC(=N)N)NC(=O)[C@H](CCC(=O)O)NC(=O)[C@H](Cc1ccccc1)NC(=O)[C@@H](N)CCCCN)C(=O)N[C@@H](CC(N)=O)C(=O)N[C@@H](CS)C(=O)N[C@@H](CCCCN)C(=O)N[C@@H](Cc1c[nH]c2ccccc12)C(=O)N[C@@H](CCSC)C(=O)N[C@H](C(=O)O)[C@@H](C)O [FIYM20] (H-KFERMNCKWMT-OH) | no inhibition

Same assay, conditions: inhibition of binding between TLN1 and ITBG, read-out: Inhibitory activity

Structure (SMILES) | IC50 [µM]
CSCC[C@H](NC(=O)[C@H](CCCCN)NC(=O)[C@H](CCC(=O)O)NC(=O)[C@H](CCCCN)NC(=O)[C@H](CCC(=O)O)NC(=O)[C@H](Cc1ccccc1)NC(=O)[C@@H](N)CCCCN)C(=O)N[C@@H](CC(N)=O)C(=O)N[C@@H](C)C(=O)N[C@@H](CCCCN)C(=O)N[C@@H](Cc1c[nH]c2ccccc12)C(=O)N[C@@H](CC(=O)O)C(=O)N[C@H](C(=O)O)[C@@H](C)O [FIYM1] (H-KFEKEKMNAKWDT-OH) | 709
CSCC[C@H](NC(=O)[C@H](CCCCN)NC(=O)[C@H](CCC(=O)O)NC(=O)[C@H](CCCCN)NC(=O)[C@H](CCC(=O)O)NC(=O)[C@H](Cc1ccccc1)NC(=O)[C@@H](N)CCCCN)C(=O)N[C@@H](CC(N)=O)C(=O)N[C@@H](CS)C(=O)N[C@@H](CCCCN)C(=O)N[C@@H](Cc1c[nH]c2ccccc12)C(=O)N[C@@H](CCSC)C(=O)N[C@H](C(=O)O)[C@@H](C)O [FIYM10] (H-KFEKEKMNCKWMT-OH) | 5.7
CSCC[C@H](NC(=O)[C@H](CCCCN)NC(=O)[C@H](CCC(=O)O)NC(=O)[C@H](CCCCN)NC(=O)[C@H](CCC(=O)O)NC(=O)[C@H](Cc1ccccc1)NC(=O)[C@H](CCCCN)NC(=O)[C@@H]1CCCN1C(C)=O)C(=O)N[C@@H](CC(N)=O)C(=O)N[C@@H](CS)C(=O)N[C@@H](CCCCN)C(=O)N[C@@H](Cc1c[nH]c2ccccc12)C(=O)N[C@@H](CCSC)C(=O)N[C@H](C(=O)O)[C@@H](C)O [FIYM17] (Ac-PKFEKEKMNCKWMT-OH) | 144
